Experimental data taken from article PMC3636874, “An Antedrug of the CXCL12 Neutraligand Blocks Experimental Allergic Asthma without Systemic Effect in Mice” (The Journal of Biological Chemistry, 2013).

Key:
HepG2 cells = assay: Cytotoxicity, Alamar Blue (resazurin) reduction assay; format: cell-based, human; details: HepG2: 10 μM, 24 h
Method: The capacity of the cells to carry out reduction reactions after drug treatment was estimated with the fluorescent Alamar Blue reagent (AbD Serotec, Oxford, UK). Proliferating cells cause the change from the oxidized blue and non-fluorescent Alamar Blue form (resazurin) to a reduced, pink, highly fluorescent form (resorufin) that can be detected using fluorescence monitoring (excitation 560 nm; emission 590 nm). HepG2 or HEK 293 cells were seeded at a density of 30,000 cells/well on a 96-well plate and allowed to settle overnight before treatment. The dye was added to the cells together with the test substances (5-fold concentrated stock solution prepared in culture medium or in PBS with 10% HP-βCD), and the fluorescence was measured after 24-h incubation, using a Flex Station (Molecular Devices).

Cytochrome c oxidase = Cytochrome c oxidase activity in lung and heart homogenates of treated mice; format: in vivo, mouse; details: intraperitoneal 350 μmol/kg per day, three days
Method: Lung and heart were homogenized separately with an UltraTurax® (IMLAB, Lille, France) in PBS, pH 7.4 (one organ in 1 ml of buffer). Lung homogenate was diluted at 1:2 and heart homogenate at 1:5 in PBS. 100 μl of each diluted homogenate were placed in a microplate, and 100 μl of assay reagent (10 mM tetramethyl-p-phenylenediamine, 2 mM sodium ascorbate, 20 mM KH2PO4) were added. The microplate was placed immediately in a microplate spectrophotometer reader, and optical density kinetic (λ = 610 nm) was measured every 20 s for 30 min. Results are expressed as Vmax/100 μg of protein (OD/min/100 μg of protein).

[1] = tested on: inflammatory cell recruitment in the airways of OVA-sensitized and challenged BALB/c mice; assay: 8-day murine model of airway hypereosinophilia (OVA sensitization and challenge), cell counts in BALF; format: in vivo, mouse; details: for effect on eosinophil / inflammatory cell recruitment in BALF after OVA challenge, intranasal: intranasal 300 nmol/kg in 10% HP-βCD, 2 h before each challenge; for inhibition of eosinophil counts in BALF: intranasal, 300–500 nmol/kg in 10% HP-βCD, 2 h before each OVA challenge; for effect on inflammatory cell counts in BALF after OVA challenge, intraperitoneal in HP-βCD: twice daily 20 μmol/kg in 10% HP-βCD, 3 days; for effect on airway inflammation (BALF cell recruitment) after OVA challenge, intraperitoneal in carboxymethylcellulose: up to 350 μmol/kg once a day for 3 days in 1% carboxymethylcellulose
Method: The in vivo activity of the compounds was assessed in an 8-day model of hypereosinophilia created by immunization and challenge to ovalbumin in mice. Briefly, 9-week-old male BALB/c mice were sensitized by intraperitoneal injection of a mixture of 50 μg of ovalbumin (OVA, grade V; Sigma-Aldrich) adsorbed on aluminum hydroxide (2 mg; Sigma-Aldrich) in 0.1 ml of saline on days 0, 1, and 2. Mice were challenged intranasally with 10 μg of OVA in 25 μl of saline (12.5 μl/nostril) on days 5, 6, and 7. Control mice received intraperitoneal and intranasal administrations of saline alone. Intranasal administrations were performed under anesthesia with 50 mg/kg ketamine and 3.33 mg/kg xylazine given intraperitoneally. Food and water were supplied ad libitum. Animal experimentation was conducted with the approval of the government body that regulates animal research in France. The chalcone compounds were administered either by the intraperitoneal or intranasal routes. In a first set of experiments, mice received either chalcone 4 or carbonitrile-chalcone 4 solubilized in PBS with 10% HP-βCD (C0926, Sigma) by intranasal injection 2 h before each nasal OVA or saline challenge. In a second set of experiments, mice received CN-chalcone 4, vanillin, or parachlorobenzoylacetonitrile intranasally, in PBS with HP-βCD 10%, 2 h before each OVA or saline challenge. In the last set of experiments, mice received chalcone 4 or CN-chalcone 4 in suspension in carboxymethylcellulose 1% or solubilized in PBS with HP-βCD 10% and administered by intraperitoneal injection 2 h before each OVA or saline challenge. Collection of bronchoalveolar lavage fluid (BALF) was performed 24 h after the last OVA challenge. Mice were deeply anesthetized by intraperitoneal injection of 150 mg/kg ketamine and 10 mg/kg xylazine. A plastic canula was inserted into the trachea, and airways were lavaged by 10 instillations of 0.5 ml of ice-cold saline supplemented with 2.6 mM EDTA (saline-EDTA). Total and differential cell counts in the BALF were performed after centrifugation (300 × g for 5 min at 4 °C) to pellet cells. Erythrocytes were lysed by hypotonic shock by the addition of 1.5 ml of distilled H2O, followed by the addition of 0.5 ml of 0.6 M KCl. Cells were centrifuged and resuspended in 500 μl of ice-cold saline-EDTA, and total cell counts were determined using a hemocytometer (Neubauer's chamber). Differential cell counts were assessed on cytologic preparation obtained by cytocentrifugation (Cytospin 3, Shandon Ltd.) of 200 μl of diluted BALF (250,000 cells/ml in ice-cold saline-EDTA). Slides were stained with Hemacolor (Merck), and counts were performed on at least 400 cells for each preparation. Differential counts were expressed as absolute numbers or as a percentage of the total number of cells.
The in vivo activity of CN-chalcone 4 was assayed in a recently developed 8-day mouse model of airway hypereosinophilia ([24]). In this model, mice are sensitized by intraperitoneal injection of OVA (50 μg) adsorbed on 2 mg of aluminum hydroxide in 0.1 ml of saline on days 0, 1, and 2. Mice are then challenged intranasally with 10 μg of OVA in 25 μl of saline (12.5 μl/nostril) on days 5, 6, and 7. Drugs to be tested can be administered either systemically by the intraperitoneal route or locally by the intranasal route. The intranasal route mimics the inhalation exposure used in humans, which is the preferred and well accepted administration for inflamed airway treatment, in particular asthma. Thus, unless otherwise stated, drugs were administered intranasally in this study. Due to limited solubility of chalcone 4 (9 ± 1 μM) and CN-chalcone 4 (16 ± 2 μM) in saline buffer, drugs were dissolved in physiological solutions complemented with HP-βCD (10%, w/w). Under such conditions, chalcone 4 and CN-chalcone 4 could be dissolved at maximal concentrations reaching 690 ± 44 and 493 ± 36 μM, respectively.

COc1cc(/C=C(\C#N)C(=O)c2ccc(Cl)cc2)ccc1O [CN-chalcone 4, (E)-2-(4-chlorobenzoyl)-3-(4-hydroxy-3-methoxyphenyl)acrylonitrile]
toxic effect in vivo or in HepG2 cells in vitro (HepG2 cells): neither the reactants nor carbonitrile-chalcone 4 display any toxic effect
Cytochrome c oxidase (Vmax), Heart (×10^3) (Cytochrome c oxidase; OVA-challenged mice): 29.9 ± 3.5 OD/min/100 μg of protein (×10^
Cytochrome c oxidase (Vmax), Lung (×10^2) (Cytochrome c oxidase; OVA-challenged mice): 12.7 ± 1.6 OD/min/100 μg of protein (×10^
Cytochrome c oxidase (Vmax), Heart (×10^3) (Cytochrome c oxidase; mice without OVA): 28.5 ± 3.2 OD/min/100 μg of protein (×10^
Cytochrome c oxidase (Vmax), Lung (×10^2) (Cytochrome c oxidase; mice without OVA): 13.8 ± 2.8 OD/min/100 μg of protein (×10^
effect on eosinophil / inflammatory cell recruitment in BALF after OVA challenge, intranasal [1]: as potent as chalcone 4
inhibition of eosinophil counts in BALF [1]: up to 50%
effect on inflammatory cell counts in BALF after OVA challenge, intraperitoneal in HP-βCD [1]: did not affect any inflammatory cell counts
effect on airway inflammation (BALF cell recruitment) after OVA challenge, intraperitoneal in carboxymethylcellulose [1]: inactive

COc1cc(/C=C/C(=O)c2ccc(Cl)cc2)ccc1O [chalcone 4]
effect on eosinophil / inflammatory cell recruitment in BALF after OVA challenge, intranasal [1]: Significant reduction of eosinophil recruitment
inhibition of eosinophil counts in BALF [1]: up to 50%
effect on inflammatory cell counts in BALF after OVA challenge, intraperitoneal in HP-βCD [1]: significantly reducing eosinophils, neutrophils, and T cell counts in BALF
effect on airway inflammation (BALF cell recruitment) after OVA challenge, intraperitoneal in carboxymethylcellulose [1]: dose-dependent anti-inflammatory activity
